Assay [1] deals with T1, Peroxisome proliferator-activated receptor gamma (Homo sapiens, UniProt P37231).
T1 sequence (P37231 whole entry): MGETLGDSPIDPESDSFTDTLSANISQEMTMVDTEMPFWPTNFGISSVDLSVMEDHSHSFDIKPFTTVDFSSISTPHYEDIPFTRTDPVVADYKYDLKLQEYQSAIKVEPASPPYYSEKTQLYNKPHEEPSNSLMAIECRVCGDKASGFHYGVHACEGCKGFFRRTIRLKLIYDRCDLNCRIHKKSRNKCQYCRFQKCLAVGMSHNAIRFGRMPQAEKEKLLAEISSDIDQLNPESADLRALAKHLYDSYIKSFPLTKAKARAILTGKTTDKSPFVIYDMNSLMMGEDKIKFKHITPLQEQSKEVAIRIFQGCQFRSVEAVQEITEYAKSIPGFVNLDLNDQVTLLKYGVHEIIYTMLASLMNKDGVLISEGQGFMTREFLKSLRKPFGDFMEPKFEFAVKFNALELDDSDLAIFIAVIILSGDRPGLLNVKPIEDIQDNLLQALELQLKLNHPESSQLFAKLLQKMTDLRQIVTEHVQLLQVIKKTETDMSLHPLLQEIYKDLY
Description: Activation of peroxisome proliferator activated receptor gamma measured by induction of 50% of maximum alkaline phosphatase activity, transfection assay in CV-1 cells

For assay [2], the species on record is Mus musculus. The experiment in a line: Compound was tested for Antihyperlipidemic activity, activity is expressed as percent reduction of NEFAs. The class given is functional.
The species named for assay [3] is Mus musculus. The experiment in a line: Compound was tested for Antihyperlipidemic activity, activity is expressed as percent reduction of Triglycerides. It counts as functional.
In assay [4] the test system is Mus musculus. The experiment in a line: Compound was tested in vivo for Antihyperglycemic activity in mice, activity is expressed as percent reduction of plasma glucose. It counts as functional.
The target of assay [5] is T2, Peroxisome proliferator-activated receptor delta (Mus musculus) (UniProt P35396).
T2 sequence (whole entry): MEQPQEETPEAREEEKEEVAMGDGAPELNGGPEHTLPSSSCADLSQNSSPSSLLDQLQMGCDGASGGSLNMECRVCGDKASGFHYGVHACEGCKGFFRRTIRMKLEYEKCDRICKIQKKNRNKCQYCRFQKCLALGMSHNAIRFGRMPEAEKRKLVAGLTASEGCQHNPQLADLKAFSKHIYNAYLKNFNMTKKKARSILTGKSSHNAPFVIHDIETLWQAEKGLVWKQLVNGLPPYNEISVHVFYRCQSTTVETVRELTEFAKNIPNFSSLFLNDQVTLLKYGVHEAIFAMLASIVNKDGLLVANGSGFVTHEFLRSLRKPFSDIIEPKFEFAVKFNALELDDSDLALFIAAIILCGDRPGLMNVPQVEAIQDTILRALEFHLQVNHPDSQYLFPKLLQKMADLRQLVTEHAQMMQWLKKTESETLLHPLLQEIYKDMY
As to the kind of experiment: Compound was tested functionally in vitro for inducing 50% of the maximum alkaline phosphatase activity (Transactivation) against murine Peroxisome proliferator activated receptor delta using transfection assay in CV-1 cells; IA = Inactive at 10e-4 M. The class given is functional, cell-based.

The target in assay [6] is T3, Peroxisome proliferator-activated receptor alpha (Mus musculus) (UniProt P23204).
T3 sequence (whole entry): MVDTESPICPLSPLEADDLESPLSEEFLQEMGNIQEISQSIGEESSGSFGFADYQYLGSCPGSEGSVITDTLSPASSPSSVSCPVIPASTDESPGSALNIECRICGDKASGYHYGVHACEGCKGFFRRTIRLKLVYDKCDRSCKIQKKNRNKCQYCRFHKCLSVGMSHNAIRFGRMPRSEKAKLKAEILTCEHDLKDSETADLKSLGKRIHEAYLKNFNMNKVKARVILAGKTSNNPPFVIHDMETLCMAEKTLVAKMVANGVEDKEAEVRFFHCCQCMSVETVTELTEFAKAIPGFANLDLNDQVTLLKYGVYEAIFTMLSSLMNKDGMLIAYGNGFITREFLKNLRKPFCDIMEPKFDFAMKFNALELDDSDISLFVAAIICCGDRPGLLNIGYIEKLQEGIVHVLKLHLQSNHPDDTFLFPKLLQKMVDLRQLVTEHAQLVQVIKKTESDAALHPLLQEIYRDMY
As to the kind of experiment: Compound was tested functionally in vitro for inducing 50% of the maximum alkaline phosphatase activity (Transactivation) against murine Peroxisome proliferator activated receptor alpha using transfection assay in CV-1 cells; IA = Inactive at 10e-4 M. The class given is functional, cell-based.

For assay [7], the system named is Rattus norvegicus. The experiment in a line: Compound was tested in vivo for Antihyperglycemic activity in Zucker Diabetic fatty rats, activity is expressed as percent reduction of plasma glucose. The class given is functional.
Assay [8] is filed under the species Rattus norvegicus. As to the kind of experiment: Compound was tested for Antihyperlipidemic activity in Zucker Diabetic fatty rats, activity is expressed as percent reduction of NEFAs. It counts as functional.
Assay [9] is filed under the species Rattus norvegicus. The experiment in a line: Compound was tested for Antihyperlipidemic activity in Zucker Diabetic fatty rats, activity is expressed as percent reduction of Triglycerides. It counts as functional.
Assay [10] concerns Rattus norvegicus. As to the kind of experiment: Compound was tested in vivo for Antihyperglycemic activity in Zucker Diabetic fatty rats, activity is expressed as percent reduction of HbA1C. The class given is functional.
For assay [11], the target named is T4, Peroxisome proliferator-activated receptor delta (Homo sapiens) (UniProt Q03181).
T4 sequence (whole entry): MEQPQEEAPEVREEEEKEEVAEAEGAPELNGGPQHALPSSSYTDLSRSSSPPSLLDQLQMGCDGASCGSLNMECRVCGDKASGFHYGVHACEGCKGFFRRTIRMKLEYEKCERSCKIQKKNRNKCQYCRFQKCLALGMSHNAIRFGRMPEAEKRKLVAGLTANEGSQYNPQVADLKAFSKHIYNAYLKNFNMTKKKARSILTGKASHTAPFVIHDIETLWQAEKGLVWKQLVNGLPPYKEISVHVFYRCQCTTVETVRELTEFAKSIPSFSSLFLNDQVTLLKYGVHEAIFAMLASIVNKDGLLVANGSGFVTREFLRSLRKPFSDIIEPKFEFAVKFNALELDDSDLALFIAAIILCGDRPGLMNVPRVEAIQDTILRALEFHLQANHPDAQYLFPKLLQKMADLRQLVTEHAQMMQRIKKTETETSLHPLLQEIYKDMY
The conditions noted are these: CV-1; 10e-4 M.
Description: Compound was tested functionally in vitro for inducing 50% of the maximum alkaline phosphatase activity (Transactivation) against human Peroxisome proliferator activated receptor delta using transfection assay in CV-1 cells; IA = Inactive at 10e-4 M

The species entered for assay [12] is Mus musculus. The experiment in a line: Compound was tested for Antihyperlipidemic activity, activity is expressed as percent increase of body weight.
The target of assay [13] is T1, Peroxisome proliferator-activated receptor gamma. This is another data set of the same source.
Description: In vitro binding to peroxisome proliferator activated receptor gamma (PPAR gamma) using [3H]-BRL 49653 as radioligand in scintillation proximity assay (SPA)
Assay [14] deals with T5, Peroxisome proliferator-activated receptor gamma (Homo sapiens) (UniProt P37231).
T5 sequence (whole entry): T1 sequence (P37231 whole entry)
The experiment in a line: Compound was tested functionally in vitro for inducing 50% of the maximum alkaline phosphatase activity (Transactivation) against Peroxisome proliferator activated receptor gamma using transfection assay in CV-1 cells; IA = Inactive at 10e-4 M. The class given is functional, cell-based.

For assay [15], the target named is T5, Peroxisome proliferator-activated receptor gamma (Homo sapiens). The note with it: 10e-4 M.
Description: Compound was tested for its ability to promote differentiation of C3H10T1/2 stem cells to adipocytes using lipogenesis assay mediated through activation of Peroxisome proliferator activated receptor gamma; IA = Inactive at 10e-4 M

Calls of active or inactive are those of the source. The calls are words filed in the database; no cut-off is given here.

Broadly, the EC50 is the concentration needed to bring the measured effect to its halfway point. High values mean a less potent agent, low ones a more potent agent. `CN(CCOc1ccc(CC(Nc2ccccc2C(O)c2ccccc2)C(=O)O)cc1)c1ccccn1` (stereo not given) had an EC50 in [1] of 447 nM.

Regarding `Cc1oc(-c2ccccc2)nc1CCOc1ccc(C[C@H](Nc2ccccc2C(=O)c2ccccc2)C(=O)O)cc1` [FARGLITAZAR], the Reduction in the assay listed under Mus musculus [2] is 56%; in the assay filed under Mus musculus [3], 54%; with Mus musculus [4], 65%; in the assay with Rattus norvegicus [7], 65%; in the assay listed under Rattus norvegicus [8] it was 75%; in the assay listed under Rattus norvegicus [9] it was 77%. Besides, the Reduction in the assay on Rattus norvegicus [10] came to 33%. Moreover, the “Log EC50” value in [5], in assay [6] and in assay [11] was “inactive” throughout. Moreover, the “body weight increase %” value in the assay filed under Mus musculus [12] worked out at 17%.

One may read the Ki as the dissociation constant of the complex between target and ligand, obtained from inhibition or displacement. Low values mean a stronger hold on the target, high ones a looser hold on the target. For `CN(CCOc1ccc(CC(Nc2cccc3c2C(=O)c2ccccc2-3)C(=O)O)cc1)c1nc2ccccc2o1` (stereo not given), a half-maximal effect in assay [1] (EC50) was put at 490 nM. The compound also showed a Ki in [13] of 85.1 nM.

Turning to `O=C(O)[C@H](Cc1ccc(OCc2ccccc2)cc1)Nc1ccccc1Cc1ccccc1`, the “Log EC50” value in [14] was “inactive”. Also, the Ki in assay [13] was over 3160 nM.

Regarding `Cc1c(C)c2c(c(C)c1O)CCC(C)(COc1ccc(C[C@H](Nc3ccccc3C(=O)c3ccccc3)C(=O)O)cc1)O2` (stereo not given in full), the EC50 in assay [1] is 9.12 nM. Also, the Ki in assay [13] was 5.25 nM.

Regarding `CC(/C=C(\O)c1ccccc1)=N\[C@@H](Cc1ccc(OCc2ccccc2)cc1)C(=O)O` (stereo in doubt), in [1], the EC50 was 21900 nM. Moreover, in [13], the Ki is over 3160 nM.

On to `Cc1oc(-c2ccccc2)nc1CCOc1ccc(CC2SC(=O)NC2=O)cc1` (stereo not given), for which the EC50 in assay [1] is 3.16 nM. In [13], this compound had a Ki of 4.27 nM.

Regarding `N[C@@H](Cc1ccc(OCc2ccccc2)cc1)C(=O)O`, in [1], the response was half-maximal at 2510 nM (EC50). This compound also gave a Ki in assay [13] of over 3160 nM.

For `COC(=O)[C@H](Cc1ccc(OCc2ccccc2)cc1)Nc1ccccc1C(=O)Nc1ccccc1`, the “Log EC50” value in assay [14] is “inactive”. The Ki in [13] is over 3160 nM.

Compound `CN(CCOc1ccc(CC(Nc2ccccc2Oc2ccccc2)C(=O)O)cc1)c1nc2ccccc2o1` (stereo not given) showed an EC50 in assay [1] of 107 nM. Also, the affinity in [13] corresponds to a Ki of 3.72 nM.

In turn, `CN(CCOc1ccc(CC(Oc2ccccc2C(=O)c2ccccc2)C(=O)O)cc1)c1nc2ccccc2o1` (stereo not given) had an EC50 in [1] of 933 nM. This compound had an inhibition constant Ki in assay [13] of 32.4 nM.

On to `CN(CCOc1ccc(CC(Nc2ccccc2C(=O)Cc2ccccc2)C(=O)O)cc1)c1nc2ccccc2o1` (stereo not given), for which, in [1], the EC50 was 28.8 nM. This compound had a Ki in assay [13] of 3.31 nM.

In assay [1], `O=C(O)[C@H](Cc1ccc(OCc2ccccc2)cc1)/N=C1\CCCC\C1=C(\O)c1ccccc1` gave an EC50 of 10200 nM. Moreover, in assay [13], the affinity corresponds to a Ki of 794 nM.

Regarding `O=C(c1ccccc1)c1ccc(N[C@@H](Cc2ccc(OCc3ccccc3)cc2)C(=O)O)cc1`, the “Log EC50” value in [14] was “inactive”. In [13], this compound had a Ki of 1260 nM.

In the case of `COC(=O)[C@H](Cc1ccc(OCc2ccccc2)cc1)/N=C(\C)C1=C(O)c2ccccc2CC1`, the “Log EC50” value in assay [14] is “inactive”. The compound further returned a Ki in assay [13] of over 3160 nM.

`CN(CCOc1ccc(CC(Sc2ccccc2C(=O)c2ccccc2)C(=O)O)cc1)c1nc2ccccc2o1` (stereo not given): the response in assay [1] was half-maximal at 1380 nM (EC50). The same compound showed a Ki in assay [13] of 33.1 nM.

In [1], `CC(/C=C(\O)c1ccccc1)=N\[C@@H](Cc1ccc(OCc2ccccc2)cc1)C(N)=O` had a concentration giving a half-maximal response (EC50) of 490 nM. This compound had a Ki in assay [13] of 1320 nM.

For the compound `COC(=O)[C@H](Cc1ccc(OCc2ccccc2)cc1)Nc1ccccc1C(=O)OCc1ccccc1`, the “Log EC50” value in assay [14] is “inactive”. Further, the Ki in assay [13] is over 3160 nM.

Compound `CC(/C=C(\O)c1ccccc1)=N\[C@@H](Cc1ccc(OCc2ccccc2)cc1)C(=O)O` (stereo in doubt; 2) had an EC50 in assay [1] of 229 nM. In addition, affinity in assay [13] was put at a Ki of 11.7 nM.

With `O=C(c1ccccc1)c1cccc(N[C@@H](Cc2ccc(OCc3ccccc3)cc2)C(=O)O)c1`, the “Log EC50” value in [14] is “inactive”. Also, the Ki in assay [13] is over 3160 nM.

`CN(CCOc1ccc(CC(Nc2cccc3c2C(=O)c2ccccc2C3=O)C(=O)O)cc1)c1nc2ccccc2o1` (stereo not given): in assay [1], the midpoint of the response, the EC50, lay at 5.01 nM. This compound showed a Ki in assay [13] of 5.13 nM. The “Log EC50” value in assay [15] was “inactive”.

Consider `C/C(O)=C/C(C)=N/[C@@H](Cc1ccc(OCc2ccccc2)cc1)C(=O)O`, for which, in assay [14], the “Log EC50” value was “inactive”. This compound also had a Ki in assay [13] of 1950 nM.

In turn, `CN(CCOc1ccc(CC(Nc2ccccc2S(=O)(=O)c2ccccc2)C(=O)O)cc1)c1nc2ccccc2o1` (stereo not given) showed an EC50 in assay [1] of 1820 nM. Moreover, in [13], the Ki was 123 nM.

With `CCc1ccc(CCOc2ccc(C[C@H](Nc3ccccc3C(=O)c3ccccc3)C(=O)O)cc2)nc1`, the EC50 in [1] is 50.1 nM. In assay [13], this compound gave a Ki of 6.46 nM.

In assay [1], `CC1(COc2ccc(C[C@H](Nc3ccccc3C(=O)c3ccccc3)C(=O)O)cc2)CCCCC1` gave an EC50 of 617 nM. Moreover, the Ki in assay [13] was 51.3 nM.

`O=C(c1ccccc1)c1ccccc1N[C@@H](Cc1ccc(OCc2ccccc2)cc1)C(=O)O` had an EC50 in assay [1] of 16600 nM. Besides, the affinity in assay [13], expressed as Ki, was 162 nM.

As to `CN(CCOc1ccc(CC(Nc2ccccc2/C(=N/N)c2ccccc2)C(=O)O)cc1)c1ccccn1` (stereo not given), the EC50 in assay [1] was 851 nM. Besides, in assay [13], the Ki is 162 nM.

Turning to `COC(=O)[C@H](Cc1ccc(OCc2ccccc2)cc1)/N=C(C)/C=C(\O)c1ccccc1`, the response in assay [1] was half-maximal at 692 nM (EC50). The compound further gave a Ki in assay [13] of 759 nM.

The record behind these values is ChEMBL document CHEMBL1131422, “N-(2-Benzoylphenyl)-L-tyrosine PPARgamma agonists. 1. Discovery of a novel series of potent antihyperglycemic and antihyperlipidemic agents” (J Med Chem, 1998).
